“And” between values parts separate entries of the source, which are not always exact repeats. Identical values can stand only once. Like-named read-outs stand apart in the source and are kept apart here.
Experiments:
[1] = tested on: 60 cancer cell lines (NCI 60 cancer cell line series); test: NCI-DTP in vitro cancer screen, sulforhodamine B (SRB) growth inhibition, 48 hour exposure; assay type: cell-based, human; set-up: key to sensitivity class Ovarian OVCAR-8 CL6005 / sensitivity class Ovarian SK-OV-3 CL6011 / sensitivity class Prostate DU-145 CL11003 / sensitivity class NSCLC NCI-H522 CL1003 / sensitivity class Ovarian IGROV1 CL6010 / sensitivity class Ovarian OVCAR-4 CL6002 / sensitivity class Prostate PC-3(I) CL11001 / sensitivity class Renal A498 CL9013 / sensitivity class Renal SN12C CL9008: sensitivity class: 1 = Low, 2 = Medium, 3 = High
In short: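 Values come from the NCI-DTP screen database: -log GI50, the concentration giving 50% growth inhibition, derived from SRB cell-mass dose-response curves. Each line seeded at its own density, treated day 1 at five ten-fold-spaced doses in duplicate wells, stained after 48 h.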

[2] = tested on: 60 cancer cell lines (NCI 60 cancer cell line series); settings: cited from earlier work

## CC[C@@]1(O)C(=O)OCc2c1cc1n(c2=O)Cc2cc3c(CN(C)C)c(O)ccc3nc2-1 [Topotecan]
[1]; Breast HS-578T CL5006
  classification of cell line as Low(1), Medium(2) or High(3) sensitivity to compound: 1
[1]; Breast MDA-MB-231 CL5005
  classification of cell line as Low(1), Medium(2) or High(3) sensitivity to compound: 1
[1]; Breast MDA-MB-435 (CL5011)
  classification of cell line as Low(1), Medium(2) or High(3) sensitivity to compound: 2
[1]; Breast MDA-N CL5012
  classification of cell line as Low(1), Medium(2) or High(3) sensitivity to compound: 2
[1]; Breast T-47D (CL5014)
  classification of cell line as Low(1), Medium(2) or High(3) sensitivity to compound: 3
[1]; CNS SF-268 CL12014
  classification of cell line as Low(1), Medium(2) or High(3) sensitivity to compound: 3
[1]; CNS SF-539 CL12016
  classification of cell line as Low(1), Medium(2) or High(3) sensitivity to compound: 3
[1]; CNS SNB-19 (CL12002)
  classification of cell line as Low(1), Medium(2) or High(3) sensitivity to compound: 2
[1]; CNS SNB-75(I) CL12005
  classification of cell line as Low(1), Medium(2) or High(3) sensitivity to compound: 2
[1]; Colon COLO-250 CL4010
  classification of cell line as Low(1), Medium(2) or High(3) sensitivity to compound: 1
[1]; Colon HCT-15 CL4015
  classification of cell line as Low(1), Medium(2) or High(3) sensitivity to compound: 1
[1]; Colon HCT-116 (CL4003)
  classification of cell line as Low(1), Medium(2) or High(3) sensitivity to compound: 2
[1]; Colon HT29(I) CL4001
  classification of cell line as Low(1), Medium(2) or High(3) sensitivity to compound: 2
[1]; Colon SW-620 (CL4009)
  classification of cell line as Low(1), Medium(2) or High(3) sensitivity to compound: 2
[1]; Leukemia CCRF-CEM(I) (CL7003)
  classification of cell line as Low(1), Medium(2) or High(3) sensitivity to compound: 3
[1]; Leukemia K562(I) CL7005
  classification of cell line as Low(1), Medium(2) or High(3) sensitivity to compound: 2
[1]; Leukemia MOLT-4 (CL7006)
  classification of cell line as Low(1), Medium(2) or High(3) sensitivity to compound: 3
[1]; Leukemia RPMI-8226(I) (CL7010)
  classification of cell line as Low(1), Medium(2) or High(3) sensitivity to compound: 2
[1]; Melanoma LOX IMVI CL10001
  classification of cell line as Low(1), Medium(2) or High(3) sensitivity to compound: 3
[1]; Melanoma MALME-3M CL10002
  classification of cell line as Low(1), Medium(2) or High(3) sensitivity to compound: 2
[1]; Melanoma SK-MEL-2 (CL10005)
  classification of cell line as Low(1), Medium(2) or High(3) sensitivity to compound: 1
[1]; Melanoma SK-MEL-5 (CL10007)
  classification of cell line as Low(1), Medium(2) or High(3) sensitivity to compound: 2
[1]; Melanoma SK-MEL-28 (CL10008)
  classification of cell line as Low(1), Medium(2) or High(3) sensitivity to compound: 1
[1]; Melanoma UACC-257 (CL10021)
  classification of cell line as Low(1), Medium(2) or High(3) sensitivity to compound: 2
[1]; NSCLC A549/ATCC (CL1004)
  classification of cell line as Low(1), Medium(2) or High(3) sensitivity to compound: 2
[1]; NSCLC HOP-62 (CL1026)
  classification of cell line as Low(1), Medium(2) or High(3) sensitivity to compound: 3
[1]; NSCLC HOP-92 (CL1029)
  classification of cell line as Low(1), Medium(2) or High(3) sensitivity to compound: 2
[1]; NSCLC NCI-H226 CL1013
  classification of cell line as Low(1), Medium(2) or High(3) sensitivity to compound: 2
[1]; cell line NSCLC NCI-H23(I), CL1001
  sensitivity class NSCLC NCI-H23(I) CL1001: 2
[1]; cell line NSCLC NCI-H460, CL1021
  sensitivity class NSCLC NCI-H460 CL1021: 3
[1]; cell line NSCLC NCI-H522, CL1003
  sensitivity class NSCLC NCI-H522 CL1003: 2
[1]; cell line Ovarian OVCAR-4, CL6002
  sensitivity class Ovarian OVCAR-4 CL6002: 1
[1]; cell line Ovarian OVCAR-5, CL6003
  sensitivity class Ovarian OVCAR-5 CL6003: 2
[1]; cell line Ovarian OVCAR-8, CL6005
  sensitivity class Ovarian OVCAR-8 CL6005: 2
[1]; cell line Ovarian SK-OV-3, CL6011
  sensitivity class Ovarian SK-OV-3 CL6011: 2
[1]; cell line Prostate DU-145, CL11003
  sensitivity class Prostate DU-145 CL11003: 3
[1]; cell line Prostate PC-3(I), CL11001
  sensitivity class Prostate PC-3(I) CL11001: 2
[1]; cell line Renal 786-O, CL9018
  sensitivity class Renal 786-O CL9018: 3
[1]; cell line Renal A498, CL9013
  sensitivity class Renal A498 CL9013: 2
[1]; cell line Renal ACHN, CL9023
  sensitivity class Renal ACHN CL9023: 3
[1]; cell line Renal CAKI-1, CL9015
  sensitivity class Renal CAKI-1 CL9015: 3
[1]; cell line Renal RXF-393, CL9016
  sensitivity class Renal RXF-393 CL9016: 2
[1]; cell line Renal TK10, CL9024
  sensitivity class Renal TK10 CL9024: 1
[1]; cell line Renal UO-31, CL9004
  sensitivity class Renal UO-31 CL9004: 2
[2]; Breast MCF7(I) (CL5001)
  -Log (GI50): 8.0 and 7.8
[2]; Breast T-47D (CL5014)
  -Log (GI50): 8.0 and 7.7
[2]; CNS SF-268 CL12014
  -Log (GI50): 7.7
[2]; CNS SF-539 CL12016
  -Log (GI50): 7.7 and 7.8
[2]; CNS SNB-19 (CL12002)
  -Log (GI50): 7.5 and 7.6
[2]; CNS U251(I) CL12009
  -Log (GI50): 7.5 and 7.8
[2]; Colon HCT-15 CL4015
  -Log (GI50): 6.2 and 6.3
[2]; Colon KM12 (CL4017)
  -Log (GI50): 6.5 and 6.4
[2]; Leukemia CCRF-CEM(I) (CL7003)
  -Log (GI50): 7.9
[2]; Leukemia MOLT-4 (CL7006)
  -Log (GI50): 7.9
[2]; Melanoma LOX IMVI CL10001
  -Log (GI50): 7.7 and 7.8
[2]; Melanoma M14 (CL10014)
  -Log (GI50): 7.5 and 7.8
[2]; Melanoma SK-MEL-2 (CL10005)
  -Log (GI50): 5.7 and 6.0
[2]; Melanoma SK-MEL-5 (CL10007)
  -Log (GI50): 7.2 and 7.5
[2]; Melanoma UACC-62 (CL10020)
  -Log (GI50): 7.8 and 7.7
[2]; NCSLC NCI-H522 CL1003
  -Log (GI50): 7.3 and 7.5
[2]; NSCLC A549/ATCC (CL1004)
  -Log (GI50): 7.0 and 7.3
[2]; NSCLC HOP-62 (CL1026)
  -Log (GI50): 7.9
[2]; NSCLC NCI-H23(I) CL1001
  -Log (GI50): 7.4
[2]; NSCLC NCI-H460 CL1021
  -Log (GI50): 7.7
[2]; Ovarian IGROV1 CL6010
  -Log (GI50): 6.3 and 6.4
[2]; Ovarian SK-OV-3 CL6011
  -Log (GI50): 7.1 and 7.2
[2]; Prostate DU-145 CL11003
  -Log (GI50): 8.0 and 7.8
[2]; Renal A498 CL9013
  -Log (GI50): 6.7 and 7.0
[2]; Renal ACHN CL9023
  -Log (GI50): 7.7 and 7.8
[2]; Renal CAKI-1 CL9015
  -Log (GI50): 7.9 and 7.8
[2]; Renal SN12C CL9008
  -Log (GI50): 7.6 and 7.5
[2]; Renal TK10 CL9024
  -Log (GI50): 5.1 and 5.3
[2]; Renal UO-31 CL9004
  -Log (GI50): 7.0 and 7.2

From patent US20020051978A1, “Methods and compositions for the identification, assessment, prevention and therapy of human cancers” (priority 2000, published 2002)
